Test results reported in patent US20090286790A1, “ORGANIC COMPOUNDS” (priority 2006, published 2009).

Target: T1, CETP (Homo sapiens, UniProt P11597)
T1 construct: Human plasma (50 uL), assay buffer (35 uL) and test compound; tissue New Drug Development Research Center, Inc; host or cells: human EDTA plasma from healthy men
T1 sequence (P11597 18-493): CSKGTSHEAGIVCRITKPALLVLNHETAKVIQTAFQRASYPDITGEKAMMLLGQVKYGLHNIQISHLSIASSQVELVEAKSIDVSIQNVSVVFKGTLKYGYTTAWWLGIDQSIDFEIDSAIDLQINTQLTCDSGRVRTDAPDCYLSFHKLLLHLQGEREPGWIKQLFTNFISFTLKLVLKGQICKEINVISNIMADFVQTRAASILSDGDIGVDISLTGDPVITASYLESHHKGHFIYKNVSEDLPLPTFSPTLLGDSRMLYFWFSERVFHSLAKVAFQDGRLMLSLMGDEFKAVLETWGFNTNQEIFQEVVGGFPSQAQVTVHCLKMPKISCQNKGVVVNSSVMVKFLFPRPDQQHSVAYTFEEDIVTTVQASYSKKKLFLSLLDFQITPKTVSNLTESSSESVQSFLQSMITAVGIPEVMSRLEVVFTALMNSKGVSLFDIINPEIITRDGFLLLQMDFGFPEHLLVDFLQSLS
Test: In vitro CETP activity assay in human plasma
Assay type: biochemical
Conditions: Table 1 Inhibitory Activity of Compounds
Procedure: The cDNA of human pro-apoAI (NCBI accession number: NM_000039) is cloned from human liver Quick-Clone™ cDNA (Clontech, CA) and inserted to a pET28a vector (Novagen, Germany) for bacterial expression. Expressed protein as a fusion protein with 6×His-tag at N-terminus in BL-21 Gold (DE3) (Strategene, CA) is purified using HiTrap Chelating (GE Healthcare, CT).
Pro-apoAI containing microemulsion as a donor particle is prepared following previous reports (J. Biol. Chem., 280:14918-22). Glyceryl trioleate (62.5 ng, Sigma, Mo.), 3-sn-phosphatidylcholine (583 ng, Wako Pure Chemical Industries, Japan), and cholesteryl BODIPY® FL C12 (250 ng, Invitrogen, CA) are dissolved in 1 mL of chloroform. The solution is evaporated, then residual solvent is removed in vacuum for more than 1 hr. […]
Human EDTA plasma samples from healthy men are purchased from New Drug Development Research Center, Inc. Donor solution is prepared by a dilution of donor microemulsion with assay buffer. […] Fluorescence intensities are measured every 30 min at 37° C. with excitation wave length of 485 nm and emission wavelength of 535 nm. The CETP activity (Fl/min) is defined as the changes of fluorescence intensity from 30 to 90 min.

IC50	Compound
314 nM	CC[C@@H]1C[C@H](N(Cc2cc(C(F)(F)F)cc(C(F)(F)F)c2)c2ncc(Br)cn2)C[C@H](Cc2ccccc2)N1C(=O)[C@H]1CC[C@@H](OC(C)=O)CC1 (relative stereo) [Example 17, acetic acid 4-{2-benzyl-4-[(3,5-bis-trifluoromethyl-benzyl)-(5-bromo-pyrimidin-2-yl)-amino]-6-ethyl-piperidine-1-carbonyl}-cyclohexyl Ester]
357 nM	CC[C@@H]1C[C@H](N(Cc2cc(C(F)(F)F)cc(C(F)(F)F)c2)c2ncc(Br)cn2)C[C@H](Cc2ccccc2)N1C(=O)[C@H]1CC[C@@H](O)CC1 (relative stereo) [Example 18, {2-benzyl-4-[(3,5-bis-trifluoromethyl-benzyl)-(5-bromo-pyrimidin-2-yl)-amino]-6-ethyl-piperidin-1-yl}-(4-hydroxy-cyclohexyl)-methanone]
